The values below are quoted from earlier work in patent publication US12453719B2, “Treatment method using a complex of angiotensin II receptor antagonist metabolite and NEP inhibitor” (Shenzhen Salubris Pharmaceuticals Co., Ltd., priority 2019, dated 2025).

Where two headings read alike, the source gives them in different places.

For series [1] the following is noted: arithmetic mean.
The conditions of series [2]: single oral administration of Losartan.

Consider `CCCCc1nc(Cl)c(CO)n1Cc1ccc(-c2ccccc2-c2nn[nH]n2)cc1` [Losartan], for which the “AUC Losartan” value in series [1] (single administration of Losartan 40 mg (n = 15)) is 391.5 ng·h/mL; in series [1] (single administration of Losartan 50 mg (n = 12)) it was 395.0 ng·h/mL; in series [1] (single administration of Losartan 80 mg (n = 8)), 932.7 ng·h/mL; in series [1] (single administration of Losartan 120 mg (n = 8)) it was 1277.7 ng·h/mL; in series [1] (single administration of Losartan 150 mg (n = 8)), 1678.0 ng·h/mL; in series [1] (single administration of Losartan 200 mg (n = 15)), 2371.6 ng·h/mL. Further, the “AUC Losartan” value is 2567.3 ng·h/mL in series [1] (single administration of Losartan 250 mg (n = 7)) and 3492.4 ng·h/mL in series [1] (single administration of Losartan 300 mg (n = 7)). The “in vivo EXP3174 exposure (AUC) relative to the prototype drug” value in series [2] is given as “about four”.
